Here are results for 34 molecules from patent publication US20090325964A1, “Piperazine Metabotropic Glutamate Receptor 5 (MGLUR5) Negative Allosteric Modulators For Anxiety/Depression” (Wyeth, priority 2008, published 2009).

Assay [1] concerns the target mGluR5 (Rattus norvegicus, UniProt P31424). Put plainly: IC50 column under 'Biological Activity' (assay not identified in the shown text; not the binding Ki).
Assay [2] has as its target T1, rat mGluR5 receptor (Rattus norvegicus, UniProt P31424).
T1 construct: expressed in transfected cells; host or cells: HEK-293
Briefly: [3H]-MPEP displacement binding assay, HEK-293 cell membranes expressing rat mGluR5. The settings on record: for Ki: read-out: Median Ki. A digest of the protocol: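 Membranes from HEK-293 cells expressing rat mGluR5 (12-25 μg protein), incubated 60 min at room temperature with 4 nM [3H]-MPEP in 50 mM Tris pH 7.5, then filtered. Nonspecific binding defined with 10 μM MPEP.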

Setting [3] is: [3H]-MPEP displacement, rat mGluR5.
Setting [4] is: 1 h, single point, @ 10 μm compound, Table 1A, read-out: PCT INHIB (%) @ 10 μm.
[5] abbreviates: @ 10 μM compound, Biological Activity, Table 2A, read-out: PCT INHIB (%) @ 10 μM.

Where two headings read alike, the source gives them in different places.

T1 sequence (P31424 21-1203): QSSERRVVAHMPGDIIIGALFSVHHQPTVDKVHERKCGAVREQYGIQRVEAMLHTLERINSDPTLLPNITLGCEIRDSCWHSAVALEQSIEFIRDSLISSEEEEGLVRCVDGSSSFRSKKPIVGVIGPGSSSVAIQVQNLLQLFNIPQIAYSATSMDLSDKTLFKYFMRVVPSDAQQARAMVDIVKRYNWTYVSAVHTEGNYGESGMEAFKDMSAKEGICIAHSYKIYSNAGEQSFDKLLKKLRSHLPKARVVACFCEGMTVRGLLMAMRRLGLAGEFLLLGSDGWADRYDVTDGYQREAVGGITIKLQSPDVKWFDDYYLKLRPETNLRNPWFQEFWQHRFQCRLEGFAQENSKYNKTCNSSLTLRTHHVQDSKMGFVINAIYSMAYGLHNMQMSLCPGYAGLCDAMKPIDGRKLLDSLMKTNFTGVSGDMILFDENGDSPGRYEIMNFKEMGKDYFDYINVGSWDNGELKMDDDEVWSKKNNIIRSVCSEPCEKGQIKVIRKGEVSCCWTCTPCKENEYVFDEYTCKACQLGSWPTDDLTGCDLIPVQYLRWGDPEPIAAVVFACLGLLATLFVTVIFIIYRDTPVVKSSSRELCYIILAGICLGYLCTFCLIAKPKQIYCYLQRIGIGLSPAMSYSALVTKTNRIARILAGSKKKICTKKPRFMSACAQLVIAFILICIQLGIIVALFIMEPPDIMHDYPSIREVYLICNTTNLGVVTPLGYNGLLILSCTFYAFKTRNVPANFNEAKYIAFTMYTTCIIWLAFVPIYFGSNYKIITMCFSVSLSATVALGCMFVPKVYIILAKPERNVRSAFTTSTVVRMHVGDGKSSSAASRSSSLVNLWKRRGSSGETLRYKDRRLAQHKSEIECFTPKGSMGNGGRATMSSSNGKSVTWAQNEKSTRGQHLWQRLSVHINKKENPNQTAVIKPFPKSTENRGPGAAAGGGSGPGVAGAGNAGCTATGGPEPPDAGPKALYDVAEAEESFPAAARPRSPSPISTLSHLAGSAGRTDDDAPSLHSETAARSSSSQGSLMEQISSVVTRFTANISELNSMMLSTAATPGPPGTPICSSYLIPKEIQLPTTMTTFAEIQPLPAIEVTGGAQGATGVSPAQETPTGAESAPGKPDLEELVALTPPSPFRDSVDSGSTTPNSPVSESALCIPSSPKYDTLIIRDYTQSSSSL
Sequence of mGluR5 (P31424 21-1203): as above

Broadly, the IC50 is the concentration at which inhibition is half-maximal. As usually defined, the Ki is the dissociation constant of the complex between target and ligand, obtained from inhibition or displacement. Take `COc1ccc(C(=O)N2CCN(c3ccccc3Cl)CC2)cc1C#Cc1ccccn1` [Compound 216, 1-(2-chlorophenyl)-4-[4-methoxy-3-(pyridin-2-ylethynyl)benzoyl]piperazine]: the IC50 in assay [1] is over 1000 nM. Besides, the Ki in assay [2] (setting [3]) is 107 nM.
For `COc1ccc(C(=O)N2CCN(c3nnc(C(F)(F)F)s3)CC2)cc1C#Cc1ccccn1` [Compound 206, 1-[4-methoxy-3-(pyridin-2-ylethynyl)benzoyl]-4-[5-(trifluoromethyl)-1,3,4-thiadiazol-2-yl]piperazine], in that order: 295 nM and 66 nM.
For `COc1ccc(C(=O)N2CCN(c3ccc(Cl)c(Cl)c3)CC2)cc1C#Cc1ccccn1` [Compound 218, 1-(3,4-dichlorophenyl)-4-[4-methoxy-3-(pyridin-2-ylethynyl)benzoyl]piperazine], in that order: over 1000 nM and 48 nM.
Molecule `COc1ccc(C(=O)N2CCN(c3cccc(F)c3)CC2)cc1C#Cc1ccccn1` [Compound 223, 1-(3-fluorophenyl)-4-[4-methoxy-3-(pyridin-2-ylethynyl)benzoyl]piperazine] showed a 50% inhibitory concentration (IC50) in assay [1] of 103 nM. The Ki in assay [2] (setting [3]) stood at 10 nM.
In the case of `COc1ccc(C(=O)N2CCN(c3ncccn3)CC2)cc1C#Cc1ccccn1` [Compound 353, 2-{4-[4-methoxy-3-(pyridin-2-ylethynyl)benzoyl]piperazin-1-yl}pyrimidine], in assay [1], the half-inhibitory concentration (IC50) came to 72 nM.
Molecule `COc1ccc(C(=O)N2CCN(c3ccc(C)cc3)CC2)cc1C#Cc1ccccn1` [Compound 222, 1-[4-methoxy-3-(pyridin-2-ylethynyl)benzoyl]-4-(4-methylphenyl)piperazine] yielded an IC50 in assay [1] of over 1000 nM. Moreover, the Ki in assay [2] (setting [3]) was 74 nM.
In the case of `COc1ccc(C(=O)N2CCN(c3nnc(Cl)cc3C)CC2)cc1C#Cc1ccccn1` [Compound 302, 6-chloro-3-{4-[4-methoxy-3-(pyridin-2-ylethynyl)benzoyl]piperazin-1-yl}-4-methylpyridazine], the IC50 in assay [1] is over 1000 nM. Besides, the Ki in assay [2] (setting [3]) was determined as 39 nM.
For `COc1ccc(C(=O)N2CCN(C(=O)c3ccccc3)CC2)cc1C#Cc1ccccn1` [Compound 244, 1-benzoyl-4-[4-methoxy-3-(pyridin-2-ylethynyl)benzoyl]piperazine], in that order: 237 nM and 54 nM.
`COc1ccc(C(=O)N2CCN(c3cccc(Cl)n3)CC2)cc1C#Cc1ccccn1` [Compound 255, 1-(6-chloropyridin-2-yl)-4-[4-methoxy-3-(pyridin-2-ylethynyl)benzoyl]piperazine]: the IC50 in assay [1] stood at 129 nM. For the same molecule, the Ki in assay [2] (setting [3]) stood at 9 nM.
With `COc1ccc(C(=O)N2CCN(c3ncccc3C(F)(F)F)CC2)cc1C#Cc1ccccn1` [Compound 184, 1-[4-methoxy-3-(pyridin-2-ylethynyl)benzoyl]-4-[3-(trifluoromethyl)pyridin-2-yl]piperazine], the IC50 in assay [1] was 117 nM. The Ki in assay [2] (setting [3]) came to 78 nM.
For `COc1ccc(C(=O)N2CCN(c3ncccc3C)CC2)cc1C#Cc1ccccn1` [Compound 208, 1-[4-methoxy-3-(pyridin-2-ylethynyl)benzoyl]-4-(3-methylpyridin-2-yl)piperazine], in that order: 141 nM and 21 nM.
Consider `COc1ccc(C(=O)N2CCN(c3cccc(C)n3)CC2)cc1C#Cc1ccccn1` [Compound 198, 1-[4-methoxy-3-(pyridin-2-ylethynyl)benzoyl]-4-(6-methylpyridin-2-yl)piperazine], for which the IC50 in assay [1] was 34 nM.
With `O=C(c1ccc(F)c(C#Cc2ccccn2)c1)N1CCN(c2ncccn2)CC1` [Compound 312, 2-{4-[4-Fluoro-3-(pyridin-2-ylethynyl)benzoyl]piperazin-1-yl}pyrimidine], the Ki in assay [2] (setting [3]) was found to be 84 nM.
For the molecule `COc1ccc(C(=O)N2CCN(c3cnccn3)CC2)cc1C#Cc1cccc(C(F)(F)F)c1` [Compound 54, 2-[4-(4-methoxy-3-{[3-(trifluoromethyl)phenyl]ethynyl}benzoyl)piperazin-1-yl]pyrazine], the inhibition at 10 µM in assay [2] (setting [4]) was determined as 96%. The Ki in assay [2] stood at 109 nM.
For `Cc1cc(C#Cc2cc(C(=O)N3CCN(c4ccccn4)CC3)ccc2C)ccc1F` [Compound 31, 1-{3-[(4-fluoro-3-methylphenyl)ethynyl]-4-methylbenzoyl}-4-pyridin-2-ylpiperazine], in that order: 68% and 472 nM.
Turning to `O=C(c1ccc(OC(F)(F)F)c(C#Cc2ccccn2)c1)N1CCN(c2cccc(C(F)(F)F)c2)CC1` [Compound 337, 1-[3-(pyridin-2-ylethynyl)-4-(trifluoromethoxy)benzoyl]-4-[3-(trifluoromethyl)phenyl]piperazine], the Ki in assay [2] (setting [3]) amounted to 1570 nM.
With `N#Cc1cccnc1N1CCN(C(=O)c2ccnc(C#Cc3ccccc3)c2)CC1` [Compound 139, 2-{4-[2-(phenylethynyl)isonicotinoyl]piperazin-1-yl}nicotinonitrile], in assay [2] (setting [5]), the inhibition at 10 µM was 40%.
As for `CCOc1ccc(C(=O)N2CCN(c3ncccc3Cl)CC2)cc1C#Cc1ccccn1` [Compound 321, 1-(3-chloropyridin-2-yl)-4-[4-ethoxy-3-(pyridin-2-ylethynyl)benzoyl]piperazine], in assay [2] (setting [3]), the Ki amounted to 149 nM.
In the case of `Nc1cccc(C#Cc2cccc(C(=O)N3CCN(c4ccccn4)CC3)c2)c1` [Compound 11, 3-({3-[(4-pyridin-2-ylpiperazin-1-yl)carbonyl]phenyl}ethynyl)aniline], the inhibition at 10 µM in assay [2] (setting [4]) is 85%.
As to `COc1ccc(C(=O)N2CCN(c3cccc(C)n3)CC2)cc1C#Cc1ccccc1` [Compound 116, 1-[4-methoxy-3-(phenylethynyl)benzoyl]-4-(6-methylpyridin-2-yl]piperazine], the inhibition at 10 µM in assay [2] (setting [5]) turned out to be 77%. Also, the Ki in assay [2] (Biological Activity, Table 2A) came out at 853 nM.
For `CC1CN(C(=O)c2cccc(C#Cc3ccccn3)c2)CCN1c1ccccn1` (centres unmarked) [Compound 105, 2-methyl-1-pyridin-2-yl-4-[3-(pyridin-2-ylethynyl)benzoyl]piperazine], in that order: 58% and 826 nM.
For `COc1ccc(C(=O)N2CCN(c3nc(-c4ccccc4)ns3)CC2)cc1C#Cc1ccccn1` [Compound 281, 1-[4-methoxy-3-(pyridin-2-ylethynyl)benzoyl]-4-(3-phenyl-1,2,4-thiadiazol-5-yl)piperazine], the inhibition constant (Ki) in assay [2] (setting [3]) was 197 nM.
Take `COc1ccc(C(=O)N2CCN(c3ccccc3OC)CC2)cc1C#Cc1ccccn1` [Compound 230, 1-(2-methoxyphenyl)-4-[4-methoxy-3-(pyridin-2-ylethynyl)benzoyl]piperazine]: the Ki in assay [2] (setting [3]) was found to be 734 nM.
For `O=C(c1cccc(C#CC(O)c2ccccc2)c1)N1CCN(c2ccccn2)CC1` (centres unmarked) [Compound 13, 1-phenyl-3-{3-[(4-pyridin-2-ylpiperazin-1-yl)carbonyl]phenyl}prop-2-yn-1-ol], in assay [2] (setting [4]), the inhibition at 10 µM stood at 15%.
Take `O=S(=O)(c1cccc(C#CC2=CCCCC2)c1)N1CCN(c2ccccn2)CC1` [Compound 173, 1-{[3-(cyclohex-1-en-1-ylethynyl)phenyl]sulfonyl}-4-pyridin-2-ylpiperazine]: the inhibition at 10 µM in assay [2] (single point, @ 10 μM compound, Table 5, read-out: PCT INHIB (%) @ 10 μM) is 0%.
Take `COc1ccc(C(=O)N2CCN(c3ccccn3)CC2)cc1C#CCc1ccccc1` [Compound 16, 1-[4-methoxy-3-(3-phenylprop-1-yn-1-yl)benzoyl]-4-pyridin-2-ylpiperazine]: in assay [2] (setting [4]), the inhibition at 10 µM turned out to be 84%. For the same molecule, the Ki in assay [2] was found to be 43 nM.
As for `Cc1ccc(C(=O)N2CCN(c3ccccn3)CC2)cc1C#Cc1cc(F)cc(F)c1` [Compound 29, 1-{3-[(3,5-difluorophenyl)ethynyl]-4-methylbenzoyl}-4-pyridin-2-ylpiperazine], the inhibition at 10 µM in assay [2] (setting [4]) stood at 41%.
With `COc1ccc(C(=O)N2CCN(c3ccccn3)CC2)cc1C#Cc1cc(C)c(C)cc1C` [Compound 23, 1-{4-methoxy-3-[(2,4,5-trimethylphenyl)ethynyl]benzoyl}-4-pyridin-2-ylpiperazine], the inhibition at 10 µM in assay [2] (setting [4]) was 0%.
In the case of “1-(4-chlorobenzyl)-4-[4-methoxy-3-(pyridin-2-ylethynyl)benzoyl]piperazin-2-one [Compound 334]”, in assay [2] (setting [3]), the Ki is 54 nM.
Same read-out and setting: the result for `COc1ccc(C(=O)N2CCN(S(=O)(=O)c3ccc(-n4cnnn4)cc3)CC2)cc1C#Cc1ccccn1` [Compound 284, 1-[4-methoxy-3-(pyridin-2-ylethynyl)benzoyl]-4-{[4-(1H-tetrazol-1-yl)phenyl]sulfonyl}piperazine] reads 376 nM.
As for `COc1ccc(C(=O)N2CCN(c3ccccn3)CC2)cc1C#Cc1cccc(C)c1` [Compound 18, 1-{4-methoxy-3-[(3-methylphenyl)ethynyl]benzoyl}-4-pyridin-2-ylpiperazine], the inhibition at 10 µM in assay [2] (setting [4]) was found to be 99%. In addition, the Ki in assay [2] amounted to 6 nM.
Regarding `O=C(c1cccc(C#Cc2ccccc2C(F)(F)F)c1)N1CCN(c2ccccn2)CC1` [Compound 5, 1-pyridin-2-yl-4-(3-{[2-(trifluoromethyl)phenyl]ethynyl}benzoyl)piperazine], in assay [2] (setting [4]), the inhibition at 10 µM is 0%.
For `COc1ccc(C(=O)N2CCN(c3ccccn3)CC2)cc1OCc1cccc(F)c1` [Compound 163, 1-{3-[(3-fluorobenzyl)oxy]-4-methoxybenzoyl}-4-pyridin-2-ylpiperazine], the inhibition at 10 µM in assay [2] (single point, @ 10 μM compound, Table 3A, read-out: PCT INHIB (%) @ 10 μM) is 11%.
`COc1ccc(C(=O)N2CCN(c3ncccc3Cl)CC2)cc1C#Cc1ccccc1[N+](=O)[O-]` [Compound 342, 1-(3-chloropyridin-2-yl)-4-{4-methoxy-3-[(2-nitrophenyl)ethynyl]benzoyl}piperazine]: the IC50 in assay [2] ([3H]-MPEP displacement, rat mGluR5, no Ki given, read-out: IC50 (printed in the Median Ki column instead of a Ki)) was over 10000 nM.
